Experimental data reported in US10894798B2, “Substituted dihydropyrrolopyrazole derivative” (UBE INDUSTRIES, LTD., priority 2015, dated 2021).

Legend:
[1] = tested on: Human keratinocytes (NHEK-Neo Pooled); assay: Human keratinocyte growth inhibition assay; format: cell-based; details: 48 h, culture for 2 days, Cell Counting Kit-8
Experimental: The measurement of a human keratinocyte growth inhibitory effect was carried out by modifying the method of Schafer et al. (British Journal of Pharmacology, 159, 842 (2011)).
Human keratinocytes (NHEK-Neo Pooled, manufactured by Lonza Group AG) were cultured in KGM-Gold keratinocyte growth medium Bullet Kit (manufactured by Lonza Group AG) and inoculated at 2×10^3 cells/well to a 96-well plate. After overnight culture in a carbon dioxide incubator, a test compound dissolved in DMSO (final DMSO concentration: 0.1%) was added thereto and left standing in a carbon dioxide incubator. After culture for 2 days, the absorbance thereof was measured by using Cell Counting Kit-8 (manufactured by Dojindo Laboratories).
The rate of inhibition of cell growth at each concentration was calculated from the test compound concentration and the absorbance of Cell Counting Kit-8, and the concentration of the test compound necessary for inhibiting 50% of cell growth (GI50 value) was calculated by using EXSUS (version 8.1.0, manufactured by CAC Exicare Corp.).

[2] = tested on: human large intestine cancer cell line (HCT-116) tumor; assay: In vivo tumor growth inhibition test for human large intestine cancer cell line by combined use with chemotherapeutic; details: for Rate of suppression of tumor volume: IV-361 25 mg/kg/day oral, alone
Experimental: The prepared cell suspension was subcutaneously injected at 0.1 mL/mouse to the right abdomens of female BALB nude mice (supplied by Charles River Laboratories Japan, Inc.).
Individuals whose tumor volume was within the range of 50 to 200 mm^3 were selected and grouped such that the tumor volume was almost equivalent. After the grouping, a test compound or only a solvent was administered in a repeated manner to the mice of each group as follows:
Single-agent administration group:
Control group: solvent (administered once a day)
5-FU, oxaliplatin, and irinotecan were intraperitoneally administered (5 mL/kg).
After a lapse of a predetermined period, the body weights of the mice of each group and the long diameter and short diameter of tumor were measured, and the tumor volume of the test compound-administered group with respect to the tumor volume of the control group was calculated as the rate of suppression of tumor volume (%).

[3] = tested on: human large intestine cancer cell line HCT-116; assay: In vitro cell growth inhibitory activity against human large intestine cancer line by combined use with chemotherapeutic; format: cell-based; details: HCT-116, 3 days, IV-361 10 nM
Experimental: A human large intestine cancer cell line HCT-116 (obtained from DS Pharma Biomedical Co., Ltd.) was cultured in a McCoy's 5A medium (manufactured by Thermo Fisher Scientific, Inc.) containing 10% fetal bovine serum (FBS) (manufactured by Thermo Fisher Scientific, Inc.) and 1% penicillin/streptomycin/amphotericin B (manufactured by Thermo Fisher Scientific, Inc.) and inoculated at 0.5 to 2.0×10^3 cells/well to a 96-well plate. The cells were cultured overnight in a carbon dioxide incubator of 37° C. containing 5% carbon dioxide. The medium was replaced with a fresh medium on the next day, and then, a mixed solution of a DMSO solution of a test compound (IV-361, 5-FU or SN-38) with varying concentrations and a cell culture medium (final DMSO concentration: 0.2%) was added thereto. The concentration of the test compound was 10 nM, the concentration of 5-FU (manufactured by Wako Pure Chemical Industries, Ltd.) was 1000 nM, and the concentration of SN-38 (manufactured by Tocris Bioscience) was adjusted to 1 nM to carry out the test. For a control group, a mixed solution of DMSO and a cell culture medium (final DMSO concentration: 0.2%) was used instead of the DMSO solution of the test compound.
After the addition of the DMSO solution of the test compound, the cells were cultured for 3 days in a carbon dioxide incubator. Then, the absorbance (measurement wavelength: 565 nm) of the medium in each group was measured by using In Vitro Toxicology Assay Kit Sulforhodamine B based (manufactured by Sigma-Aldrich Co. LLC.).
The rate of inhibition of growth (%) was calculated according to the expression given below. Specifically, in the case where the difference between the average absorbance before culture (day 0) and the average absorbance after culture in the test compound-administered group is the same as the difference between the average absorbance before culture (day 0) and the average absorbance after culture in the control group, the rate of inhibition of cell growth is 0%. Rate of inhibition of growth=(1−((Average absorbance of the test compound-administered group after culture)−(Average absorbance of the test compound-administered group on day 0))/((Average absorbance of the control group after culture)−(Average absorbance of the control group on day 0)))×100

[4] = tested on: mouse collagen-induced arthritis model; assay: Swelling suppression test using mouse collagen-induced arthritis model; format: in vivo; details: dose of 100 mg/kg, repeated oral administration, male DBA/1J mice
Experimental: A mouse collagen-induced arthritis model test was carried out by modifying the method of Mihara et al. (British Journal of Pharmacology, 154, 153 (2008)).
Male DBA/1J mice (supplied by Japan SLC, Inc.) were used as laboratory animals. An adjuvant prepared from a type II collagen solution (Collagen Research Center) and Adjuvant Complete Freund (manufactured by Difco Laboratories Ltd.) was intracutaneously administered twice to the bases of the tails of the mice under inhalation anesthesia with isoflurane (manufactured by Wako Pure Chemical Industries, Ltd.) for sensitization to prepare arthritis models.
Also, Adjuvant Complete Freund (manufactured by Difco Laboratories Ltd.) not containing type II collagen was administered by a similar method to obtain a control group. […]
During the test period, the swelling scoring of limbs (score 0: no disease, score 1: swelling and redness or weak swelling in the small joint of only one of the toes and the fingers, score 2: moderate swelling in the small joints of two or more of the toes and the fingers, score 3: strong swelling in the ankle or the forefoot wrist, score 4: overall strong swelling) was carried out to evaluate the drug efficacy of the test compound. When the total score of the solvent-administered group on the final day was defined as 100%, the rate of reduction in score (%) at each dose of the test compound was calculated.

In the case of `Cc1cccc(Cl)c1NC(=O)N1Cc2c(NC(=O)C3([Si](C)(C)C)CCC3)n[nH]c2C1(C)C` [IV-215, N-(2-Chloro-6-methylphenyl)-6,6-dimethyl-3-[1-(trimethylsilyl)cyclobutanecarboxamido]-4,6-dihydropyrrolo[3,4-c]pyrazole-5 (1H)-carboxamide], the GI50 [1] is reported as ≤ 500 nM.

With `Cc1ccc(F)cc1NC(=O)N1Cc2c(NC(=O)C3([Si](C)(C)C)CCC3)n[nH]c2C1(C)C` [IV-361, N-(5-Fluoro-2-methylphenyl)-6,6-dimethyl-3-[1-(trimethylsilyl)cyclobutanecarboxamido]-4,6-dihydropyrrolo[3,4-c]pyrazole-5 (1H)-carboxamide] the “rate of suppression of tumor volume in combined use with chemotherapeutic (5-FU, oxaliplatin or irinotecan)” value ([2]; 25 mg/kg IV-361 oral + 15 mg/kg 5-FU, 3 mg/kg oxaliplatin or 12.5 mg/kg irinotecan i.p., HCT-116 nude mice) was “excellent rate of suppression of tumor volume”, the “Rate of suppression of tumor volume” value ([2]; Table 52) was 46% and the “Rate of suppression of tumor volume” value ([2]; Table 53) was 46%. The “Rate of suppression of tumor volume” value ([2]; Table 54) was 20%, the inhibition at 0.01 µM ([3]; Homo sapiens, 72 h, single-agent treatment, read-out: Rate of inhibition of growth (%)) was 11% and the “cancer cell growth inhibitory effect in combined use with chemotherapeutic (5-FU or SN-38)” value ([3]; 5-FU 1000 nM, SN-38 1 nM) was “synergistic cancer cell growth inhibitory effect”. The GI50 [1] was ≤ 500 nM and the “rate of inhibition (reduction in swelling score)” value [4] was ≥ 50%.

In the case of `COc1cccc(Cl)c1NC(=O)N1Cc2c(NC(=O)C3([Si](C)(C)C)CCC3)n[nH]c2C1(C)C` [IV-247, N-(2-Chloro-6-methoxyphenyl)-6,6-dimethyl-3-[1-(trimethylsilyl)cyclobutanecarboxamido]-4,6-dihydropyrrolo[3,4-c]pyrazole-5(1H)-carboxamide], the GI50 [1] is reported as ≤ 500 nM.

`Cc1cccc(F)c1NC(=O)N1Cc2c(NC(=O)C3([Si](C)(C)C)CCC3)n[nH]c2C1(C)C` [IV-129, N-(2-Fluoro-6-methylphenyl)-6,6-dimethyl-3-[1-(trimethylsilyl)cyclobutanecarboxamido]-4,6-dihydropyrrolo[3,4-c]pyrazole-5 (1H)-carboxamide] was tested, and the GI50 [1] was ≤ 500 nM.

`Cc1ccc(C)c(NC(=O)N2Cc3c(NC(=O)C4([Si](C)(C)C)CCC4)n[nH]c3C2(C)C)c1` [IV-379, N-(2,5-Dimethylphenyl)-6,6-dimethyl-3-[1-(trimethylsilyl)cyclobutanecarboxamido]-4,6-dihydropyrrolo[3,4-c]pyrazole-5(1H)-carboxamide] was tested, and the GI50 [1] was ≤ 500 nM.
